Source: patent publication US8389508B2 (Glaxo Group Limited, priority 2010, dated 2013)
Structures can show the parent of a compound that is named as a salt.

What follows are molecules tested against T1, human Endothelial Differentiation G-protein Coupled Receptor 3 (EDG3), S1P3 receptor (Homo sapiens, UniProt Q99500) (assay: S1P3 Assay (GeneBLAzer EDG3-Ga15-NFAT-bla HEK 293T beta-lactamase reporter, agonist dose response)). Details: EDG3-Ga15-NFAT-bla HEK 293T cells, blue/green emission ratio, 10 point dose response, free base or salt form; read-out: pEC50 (S1P3 assay) (converted).
T1 construct: expressed in transfected cells; host or cells: GeneBLAzer EDG3-Ga15-NFAT-bla HEK 293T
T1 sequence (Q99500 whole entry): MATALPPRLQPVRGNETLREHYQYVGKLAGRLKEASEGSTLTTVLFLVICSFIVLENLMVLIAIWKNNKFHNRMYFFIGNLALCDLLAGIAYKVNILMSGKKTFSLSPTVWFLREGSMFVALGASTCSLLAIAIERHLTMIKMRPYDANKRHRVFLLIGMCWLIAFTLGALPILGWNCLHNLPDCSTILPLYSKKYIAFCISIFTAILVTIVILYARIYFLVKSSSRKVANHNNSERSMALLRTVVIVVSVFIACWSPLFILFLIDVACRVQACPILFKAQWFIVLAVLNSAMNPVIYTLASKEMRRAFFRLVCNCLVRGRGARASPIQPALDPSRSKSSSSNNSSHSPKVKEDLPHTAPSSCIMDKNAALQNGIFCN
Format: cell-based
Description: GeneBLAzer EDG3-Ga15-NFAT-bla HEK 293T cells (contain the human Endothelial Differentiation G-protein Coupled Receptor 3 (EDG3) and a beta-lactamase reporter gene under control of a NFAT response element and a promiscuous G Protein, Ga15, stably integrated into the GeneBLAzer Ga15-NFAT-bla HEK 293T cell line) were harvested from growth medium and suspended in assay medium (90% DMEM, 10% Charcoal-stripped FBS, 0.1 mM NEAA, 25 mM HEPES (pH 7.3), 100 U/ml penicillin, 100 μg/ml streptomycin) at a density of […]. All test compounds were dissolved in DMSO at a concentration of 10 mM and were prepared in 100% DMSO to provide 10 point dose response curves. Test compounds in the free base or in a salt form were prepared by Velocity 11 Bravo automation (Agilent) were added to wells in columns 2-11 and 13-22; DMSO was added to wells in columns 12 and 23 as unstimulated controls and assay medium was added to wells in columns 1 and 24 as cell-free controls. An S1P3 agonist was added to wells in row 2, columns 2-11 as stimulated controls and test compounds were added to wells in row 2, columns 13-22 and rows 3-15, columns 2-11/13-22 (row 1 and 16 were empty and not used). Compounds in solution were added to the assay plate (Greiner 781090) using an Echo (Labcyte) dose-response program (50 nl/well). The unstimulated and cell-free controls were loaded with 50 nl/well pure DMSO to ensure that the DMSO concentration was constant across the plate for all assays.
50 μl of the cell suspension was added to each well in columns 2-23 of the plate (˜10,000 cells per well). 50 μl of assay medium was added to each well in the cell-free controls (columns 1 and 24). The cells were incubated overnight at 37° C./5% CO2.
(§1) 10 μl of 6× substrate mixture (LiveBLAzer™-FRET B/G substrate (CCF4-AM) Cat # K1096 from Invitrogen, Inc.) was added to each well using Bravo automation and the plates incubated at room temperature for 2 h in the dark. The plate was finally read on EnVision using one excitation channel (409 nm) and two emission channels (460 nm and 530 nm).
(§2) The blue/green emission ratio (460 nm/530 nm) was calculated for each well, by dividing the background-subtracted Blue emission values by the background-subtracted Green emission values. The dose response curve is based on sigmoidal dose-response model. All ratio data was normalized based upon the maximum emission ratio of positive control and minimum emission ratio of negative control (DMSO) on each plate. The intrinsic activity (IA) of each compound is defined as relative response normalised to a reference compound, whose maximum response is defined as 100% after curve fitting.

Compound	EC50 [µM]
CCc1c(-c2nnc(-c3ccc(OC(C)C)c(Cl)c3)s2)cccc1C1CCN(CCC(=O)O)CC1 [Example 95, 3-{4-[3-(5-{3-chloro-4-[(1-methylethyl)oxy]phenyl}-1,3,4-thiadiazol-2-yl)-2-ethylphenyl]-1-piperidinyl}propanoic acid trifluoroacetate]	> 3.16
CCc1c(CN2CCC(CC(=O)O)CC2)cccc1-c1nsc(-c2ccc(OC(C)C)c(C(F)(F)F)c2)n1 [Example 20, {1-[(2-ethyl-3-{5-[4-[(1-methylethyl)oxy]-3-(trifluoromethyl)phenyl]-1,2,4-thiadiazol-3-yl}phenyl)methyl]-4-piperidinyl}acetic acid]	> 10
CCc1c(CCN2CCC(C(=O)O)C2)cccc1-c1nsc(-c2ccc(OC(C)C)c(Cl)c2)n1 (stereo not drawn) [Example 67]	> 3.16
CCc1c(CN2CCC(C(=O)O)CC2)cccc1-c1nsc(-c2ccc(CC(C)C)c(C#N)c2)n1 [Example 28, 1-[(3-{5-[3-cyano-4-(2-methylpropyl)phenyl]-1,2,4-thiadiazol-3-yl}-2-ethylphenyl)methyl]-4-piperidinecarboxylic acid]	> 10
CCc1c(CN2CCCC(C(=O)O)C2)cccc1-c1cnc(-c2ccc(OC(C)C)c(C#N)c2)s1 (stereo not drawn) [Example 86]	> 10
CCc1c(CN2C[C@H](O)C[C@H]2C(=O)O)cccc1-c1cnc(-c2ccc(OC(C)C)c(C#N)c2)s1 [Example 85]	> 10
CCc1c(CCN2CCC[C@@H]2C(=O)O)cccc1-c1cnc(-c2ccc(OC(C)C)c(C#N)c2)s1 [Example 89]	> 10
CCc1c(CCN2CCC[C@H](C(=O)O)C2)cccc1-c1nsc(-c2ccc(OC(C)C)c(Cl)c2)n1 [Example 71]	> 3.16
CCc1c(-c2nnc(-c3ccc(OC(C)C)c(Cl)c3)s2)cccc1C1CCN(CCCC(=O)O)CC1 [Example 97, 4-{4-[3-(5-{3-chloro-4-[(1-methylethyl)oxy]phenyl}-1,3,4-thiadiazol-2-yl)-2-ethylphenyl]-1-piperidinyl}butanoic acid trifluoroacetate]	> 3.16
CCc1c(CN2CCC[C@H]2C(=O)O)cccc1-c1cnc(-c2ccc(OC(C)C)c(C#N)c2)s1 [Example 81, 1-{[3-(2-{3-cyano-4-[(1-methylethyl)oxy]phenyl}-1,3-thiazol-5-yl)-2-ethylphenyl]methyl}-L-proline trifluoroacetate]	> 10
CCc1c(CCN2CC[C@H](C(=O)O)C2)cccc1-c1nsc(-c2ccc(OC(C)C)c(Cl)c2)n1 [Example 68]	> 3.16

The molecules below were run against T2, human Endothelial Differentiation Gene 1 (EDG1), S1P1 receptor (Homo sapiens, UniProt P21453) (assay: S1P1 Assay (Tango EDG1-bla/U2OS beta-lactamase reporter, agonist dose response)). Details: EDG1-bla/U2OS cells, blue/green emission ratio, 10 point dose response, free base or salt form; read-out: pEC50 (S1P1 assay) (converted).
T2 construct: TEV protease site; Gal4-VP16 transcription factor; expressed in transfected cells; host or cells: EDG1-bla/U2OS (Tango GPCR-bla U2OS parental cell line)
T2 sequence (P21453 whole entry, the tested form may be a part): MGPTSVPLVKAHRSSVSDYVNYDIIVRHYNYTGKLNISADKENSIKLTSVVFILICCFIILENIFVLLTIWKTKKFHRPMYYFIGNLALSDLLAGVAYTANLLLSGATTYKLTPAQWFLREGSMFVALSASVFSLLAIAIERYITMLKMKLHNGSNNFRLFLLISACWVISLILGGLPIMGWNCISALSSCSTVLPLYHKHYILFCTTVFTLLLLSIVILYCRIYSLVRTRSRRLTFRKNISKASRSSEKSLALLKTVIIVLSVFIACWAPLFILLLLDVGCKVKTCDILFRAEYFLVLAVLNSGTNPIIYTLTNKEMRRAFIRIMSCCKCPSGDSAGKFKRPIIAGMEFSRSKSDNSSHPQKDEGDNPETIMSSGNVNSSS
Format: cell-based
Description: Recombinant EDG1-bla/U2OS cells (contain the human Endothelial Differentiation Gene 1 (EDG1) linked to a TEV protease site and a Gal4-VP16 transcription factor stably integrated into the Tango GPCR-bla U2OS parental cell line) were harvested from growth medium and passaged into assay medium (Invitrogen Freestyle Expression Medium). The cells were starved for 24 hours at 37° C., 5% CO2, harvested and resuspended in assay medium at a density of ˜200,000 cells/ml. All test compounds were dissolved in DMSO at a concentration of 10 mM and were prepared in 100% DMSO to provide 10 point dose response curves. Test compounds in the free base or in a salt form were prepared by Velocity11 Bravo automation (Agilent) were added to wells in columns 2-11 and 13-22; DMSO was added to wells in columns 12 and 23 as unstimulated controls and assay medium was added to wells in columns 1 and 24 as cell-free controls. An S1P1 agonist was added to wells in row 2, columns 2-11 as stimulated controls and test compounds were added to wells in row 2, columns 13-22 and rows 3-15, columns 2-11/13-22 (row 1 and 16 were empty and not used). Compounds in solution were added to the assay plate (Greiner 781090) using an Echo (Labcyte) dose-response program (50 nl/well). The unstimulated and cell-free controls were loaded with 50 nl/well pure DMSO to ensure that the DMSO concentration was constant across the plate for all assays. 50 μl of the cell suspension was added to each well in columns 2-23 of the plate (˜10,000 cells per well). 50 μl of assay medium was added to each well in the cell-free controls (columns 1 and 24). The cells were incubated overnight at 37° C./5% CO2.
as §1, §2

Compound	EC50 [µM]
CCc1c(CCN2CC(C(=O)O)C2)cccc1-c1nnc(-c2ccc(OC(C)C)c(Cl)c2)s1 [Example 6, 1-{2-[3-(5-{3-chloro-4-[(1-methylethyl)oxy]phenyl}-1,3,4-thiadiazol-2-yl)-2-ethylphenyl]ethyl}-3-azetidinecarboxylic acid trifluoroacetate]	< 0.001
CCc1c(CN2CC(C(=O)O)C2)cccc1-c1nsc(-c2ccc(OC(C)C)c(Cl)c2)n1 [Example 25, 1-{[3-(5-{3-chloro-4-[(1-methylethyl)oxy]phenyl}-1,2,4-thiadiazol-3-yl)-2-ethylphenyl]methyl}-3-azetidinecarboxylic acid trifluoroacetate]	≤ 0.01
CCc1c(CCN2CC(C(=O)O)C2)cccc1-c1nsc(-c2ccc(OC(C)C)c(Cl)c2)n1 [Example 23, 1-{2-[3-(5-{3-chloro-4-[(1-methylethyl)oxy]phenyl}-1,2,4-thiadiazol-3-yl)-2-ethylphenyl]ethyl}-3-azetidinecarboxylic acid trifluoroacetate]	< 0.001
CCc1c(CN2CC(C(=O)O)C2)cccc1-c1nsc(-c2ccc(CC(C)C)c(C#N)c2)n1 [Example 27, 1-[(3-{5-[3-cyano-4-(2-methylpropyl)phenyl]-1,2,4-thiadiazol-3-yl}-2-ethylphenyl)methyl]-3-azetidinecarboxylic acid trifluoroacetate]	≤ 0.01
CCc1c(CCN2CCC(C(=O)O)CC2)cccc1-c1nsc(-c2ccc(OC(C)C)c(Cl)c2)n1 [Example 24, 1-{2-[3-(5-{3-chloro-4-[(1-methylethyl)oxy]phenyl}-1,2,4-thiadiazol-3-yl)-2-ethylphenyl]ethyl}-4-piperidinecarboxylic acid trifluoroacetate]	< 0.001
CCc1c(CCN2CCC(C(=O)O)C2)cccc1-c1cnc(-c2ccc(OC(C)C)c(C#N)c2)s1 (stereo not drawn) [Example 90]	< 0.001
CCc1c(CCN2CCC(C(=O)O)CC2)cccc1-c1nsc(-c2ccc(CC(C)C)c(C#N)c2)n1 [Example 29, 1-[2-(3-{5-[3-cyano-4-(2-methylpropyl)phenyl]-1,2,4-thiadiazol-3-yl}-2-ethylphenyl)ethyl]-4-piperidinecarboxylic acid trifluoroacetate]	< 0.001
CCc1c(CN2CC(C(=O)O)C2)cccc1-c1nnc(-c2ccc(OC(C)C)c(C(F)(F)F)c2)s1 [Example 2, 1-[(2-ethyl-3-{5-[4-[(1-methylethyl)oxy]-3-(trifluoromethyl)phenyl]-1,3,4-thiadiazol-2-yl}phenyl)methyl]-3-azetidinecarboxylic acid]	< 0.001
CCc1c(CCN2CC(C(=O)O)C2)cccc1-c1nsc(-c2ccc(OC(C)C)c(C(F)(F)F)c2)n1 [Example 22, 1-[2-(2-ethyl-3-{5-[4-[(1-methylethyl)oxy]-3-(trifluoromethyl)phenyl]-1,2,4-thiadiazol-3-yl}phenyl)ethyl]-3-azetidinecarboxylic acid]	< 0.001
CCc1c(CCN2CCC(C(=O)O)CC2)cccc1-c1cnc(-c2ccc(OC(C)C)c(Cl)c2)s1 [Example 40, 1-{2-[3-(2-{3-chloro-4-[(1-methylethyl)oxy]phenyl}-1,3-thiazol-5-yl)-2-ethylphenyl]ethyl}-4-piperidinecarboxylic acid trifluoroacetate]	< 0.001
CCc1c(CCN2CCC(C(=O)O)CC2)cccc1-c1nsc(-c2ccc(OC(C)C)c(C(F)(F)F)c2)n1 [Example 21, 1-[2-(2-ethyl-3-{5-[4-[(1-methylethyl)oxy]-3-(trifluoromethyl)phenyl]-1,2,4-thiadiazol-3-yl}phenyl)ethyl]-4-piperidinecarboxylic acid]	< 0.001
CCc1c(CN2CC(C(=O)O)C2)cccc1-c1nsc(-c2ccc(OC(C)C)c(C(F)(F)F)c2)n1 [Example 19, 1-[(2-ethyl-3-{5-[4-[(1-methylethyl)oxy]-3-(trifluoromethyl)phenyl]-1,2,4-thiadiazol-3-yl}phenyl)methyl]-3-azetidinecarboxylic acid]	< 0.001
CCc1c(CN2CCC(C(=O)O)CC2)cccc1-c1cnc(-c2ccc(OC(C)C)c(C#N)c2)s1 [Example 35, 1-{[3-(2-{3-cyano-4-[(1-methylethyl)oxy]phenyl}-1,3-thiazol-5-yl)-2-ethylphenyl]methyl}-4-piperidinecarboxylic acid trifluoroacetate]	≤ 0.01
